Test system: patients with advanced solid tumors
Assay: Treatment-related adverse events graded by NCI-CTC v3.0
Assay type: in vivo, human
Protocol: Medical records and laboratory tests were obtained during screening. Physical examination, routine laboratory evaluations, and performance status were assessed at baseline and at specified time points throughout the trial. AEs and concomitant medications were recorded at the end of each cycle. The safety evaluation period extended through 30 days from the last dose of study drug or through recovery to grade 1 or better from all acute toxicities associated with drug administration. Toxicity was evaluated and graded according to the NCI-CTC for Adverse Events, version 3.0.

N#CC1(c2ccc(NC(=O)c3cccnc3NCc3ccncc3)cc2)CCCC1 [apatinib]
Anemia grade 1-2, % (250 mg cohort): 25.0% | Anemia grade 1-2, No. (250 mg cohort): 1 | Hyperbilirubinemia grade 3-4, % (250 mg cohort): 25% | Hyperbilirubinemia grade 3-4, No. (250 mg cohort): 1 | Hypertension grade 1-2, % (250 mg cohort): 50% | Hypertension grade 1-2, No. (250 mg cohort): 2 | Infection grade 1-2, % (250 mg cohort): 25.0% | Infection grade 1-2, No. (250 mg cohort): 1 | Proteinuria grade 3-4, % (250 mg cohort): 25.0% | Proteinuria grade 3-4, No. (250 mg cohort): 1 | Thrombocytopenia grade 1-2, % (250 mg cohort): 25.0% | Thrombocytopenia grade 1-2, No. (250 mg cohort): 1 | Transaminase Increased grade 1-2, % (250 mg cohort): 50.0% | Transaminase Increased grade 1-2, No. (250 mg cohort): 2 | Anemia grade 1-2, % (500 mg cohort): 9% | Anemia grade 1-2, No. (500 mg cohort): 1 | Anorexia grade 1-2, % (500 mg cohort): 18.2% | Anorexia grade 1-2, No. (500 mg cohort): 2 | Diarrhea grade 1-2, % (500 mg cohort): 9% | Diarrhea grade 1-2, No. (500 mg cohort): 1 | Fatigue grade 1-2, % (500 mg cohort): 9% | Fatigue grade 1-2, No. (500 mg cohort): 1 | Hand-Food Syndrome grade 1-2, % (500 mg cohort): 36.4% | Hand-Food Syndrome grade 1-2, No. (500 mg cohort): 4 | Hand-Food Syndrome grade 3-4, % (500 mg cohort): 9% | Hand-Food Syndrome grade 3-4, No. (500 mg cohort): 1 | Hemorrhage grade 1-2, % (500 mg cohort): 36.4% | Hemorrhage grade 1-2, No. (500 mg cohort): 4 | Hemorrhage grade 3-4, % (500 mg cohort): 9% | Hemorrhage grade 3-4, No. (500 mg cohort): 1 | Hoarseness grade 1-2, % (500 mg cohort): 9% | Hoarseness grade 1-2, No. (500 mg cohort): 1 | Hypertension grade 1-2, % (500 mg cohort): 63.6% | Hypertension grade 1-2, No. (500 mg cohort): 7 | Infection grade 1-2, % (500 mg cohort): 9% | Infection grade 1-2, No. (500 mg cohort): 1 | Mucosal ulcers grade 1-2, % (500 mg cohort): 18.2% | Mucosal ulcers grade 1-2, No. (500 mg cohort): 2 | Neutropenia grade 1-2, % (500 mg cohort): 18.2% | Neutropenia grade 1-2, No. (500 mg cohort): 2 | Neutropenia grade 3-4, % (500 mg cohort): 18.2% | Neutropenia grade 3-4, No. (500 mg cohort): 2 | Pain grade 1-2, % (500 mg cohort): 36.4% | Pain grade 1-2, No. (500 mg cohort): 4 | Pain grade 3-4, % (500 mg cohort): 18.2% | Pain grade 3-4, No. (500 mg cohort): 2 | Proteinuria grade 1-2, % (500 mg cohort): 36.4% | Proteinuria grade 1-2, No. (500 mg cohort): 4 | Proteinuria grade 3-4, % (500 mg cohort): 9% | Proteinuria grade 3-4, No. (500 mg cohort): 1 | Rash grade 1-2, % (500 mg cohort): 9% | Rash grade 1-2, No. (500 mg cohort): 1 | Thrombocytopenia grade 1-2, % (500 mg cohort): 18.2% | Thrombocytopenia grade 1-2, No. (500 mg cohort): 2 | Thrombocytopenia grade 3-4, % (500 mg cohort): 0% | Thrombocytopenia grade 3-4, No. (500 mg cohort): 0 | Transaminase Increased grade 1-2, % (500 mg cohort): 9% | Transaminase Increased grade 1-2, No. (500 mg cohort): 1 | Transaminase Increased grade 3-4, % (500 mg cohort): 9% | Transaminase Increased grade 3-4, No. (500 mg cohort): 1 | Vomiting grade 1-2, % (500 mg cohort): 0% | Vomiting grade 1-2, No. (500 mg cohort): 0 | Albinism grade 1-2, % (750 mg cohort): 6.7% | Albinism grade 1-2, No. (750 mg cohort): 1 | Anemia grade 1-2, % (750 mg cohort): 20% | Anemia grade 1-2, No. (750 mg cohort): 3 | Anorexia grade 1-2, % (750 mg cohort): 20% | Anorexia grade 1-2, No. (750 mg cohort): 3 | Diarrhea grade 1-2, % (750 mg cohort): 20% | Diarrhea grade 1-2, No. (750 mg cohort): 3 | Fatigue grade 1-2, % (750 mg cohort): 26.7% | Fatigue grade 1-2, No. (750 mg cohort): 4 | Fatigue grade 3-4, % (750 mg cohort): 6.7% | Fatigue grade 3-4, No. (750 mg cohort): 1 | Hand-Food Syndrome grade 1-2, % (750 mg cohort): 46.7% | Hand-Food Syndrome grade 1-2, No. (750 mg cohort): 7 | Hand-Food Syndrome grade 3-4, % (750 mg cohort): 13.3% | Hand-Food Syndrome grade 3-4, No. (750 mg cohort): 2 | Hemorrhage grade 1-2, % (750 mg cohort): 33.3% | Hemorrhage grade 1-2, No. (750 mg cohort): 5 | Hoarseness grade 1-2, % (750 mg cohort): 13.3% | Hoarseness grade 1-2, No. (750 mg cohort): 2 | Hypertension grade 1-2, % (750 mg cohort): 60% | Hypertension grade 1-2, No. (750 mg cohort): 9 | Hypertension grade 3-4, % (750 mg cohort): 13.3% | Hypertension grade 3-4, No. (750 mg cohort): 2 | Infection grade 1-2, % (750 mg cohort): 26.7% | Infection grade 1-2, No. (750 mg cohort): 4 | Mucosal ulcers grade 1-2, % (750 mg cohort): 13.3% | Mucosal ulcers grade 1-2, No. (750 mg cohort): 2 | Mucosal ulcers grade 3-4, % (750 mg cohort): 13.3% | Mucosal ulcers grade 3-4, No. (750 mg cohort): 2 | Neutropenia grade 1-2, % (750 mg cohort): 46.7% | Neutropenia grade 1-2, No. (750 mg cohort): 7 | Pain grade 1-2, % (750 mg cohort): 26.7% | Pain grade 1-2, No. (750 mg cohort): 4 | Pain grade 3-4, % (750 mg cohort): 13.3% | Pain grade 3-4, No. (750 mg cohort): 2 | Proteinuria grade 1-2, % (750 mg cohort): 46.67% | Proteinuria grade 1-2, No. (750 mg cohort): 7 | Proteinuria grade 3-4, % (750 mg cohort): 20% | Proteinuria grade 3-4, No. (750 mg cohort): 3 | Rash grade 1-2, % (750 mg cohort): 6.7% | Rash grade 1-2, No. (750 mg cohort): 1 | Thrombocytopenia grade 1-2, % (750 mg cohort): 40% | Thrombocytopenia grade 1-2, No. (750 mg cohort): 6 | Transaminase Increased grade 1-2, % (750 mg cohort): 40% | Transaminase Increased grade 1-2, No. (750 mg cohort): 6 | Vomiting grade 1-2, % (750 mg cohort): 26.7% | Vomiting grade 1-2, No. (750 mg cohort): 4 | Anemia grade 1-2, % (850 mg cohort): 15.4% | Anemia grade 1-2, No. (850 mg cohort): 2 | Anemia grade 3-4, % (850 mg cohort): 7.7% | Anemia grade 3-4, No. (850 mg cohort): 1 | Anorexia grade 1-2, % (850 mg cohort): 7.7% | Anorexia grade 1-2, No. (850 mg cohort): 1 | Diarrhea grade 1-2, % (850 mg cohort): 15.4% | Diarrhea grade 1-2, No. (850 mg cohort): 2 | Dyspnea grade 1-2, % (850 mg cohort): 7.7% | Dyspnea grade 1-2, No. (850 mg cohort): 1 | Fatigue grade 1-2, % (850 mg cohort): 30.8% | Fatigue grade 1-2, No. (850 mg cohort): 4 | Hand-Food Syndrome grade 1-2, % (850 mg cohort): 30.8% | Hand-Food Syndrome grade 1-2, No. (850 mg cohort): 4 | Hand-Food Syndrome grade 3-4, % (850 mg cohort): 15.4% | Hand-Food Syndrome grade 3-4, No. (850 mg cohort): 2 | Hemorrhage grade 1-2, % (850 mg cohort): 7.7% | Hemorrhage grade 1-2, No. (850 mg cohort): 1 | Hoarseness grade 1-2, % (850 mg cohort): 7.7%
